Source: patent US20050119300A1, “Development of novel regulators of angiogenesis” (priority 2002, published 2005)

Legend:
[1] = system: VEGF-induced and bFGF-induced corneal neovascularization; settings: further studies, reported; cited from earlier work
[2] = system: endothelial cells; settings: reported; cited from earlier work
[3] = system: human vascular endothelial cells (HUVECS); assay: Endothelial cell proliferation, 3H-thymidine uptake assay; type: cell-based; settings: for % Inhibition vs 10% Serum / Average ([3H]-thymidine incorporation, radioactivity) / Well 1 ([3H]-thymidine incorporation, radioactivity) / Well 2 ([3H]-thymidine incorporation, radioactivity) / Well 3 ([3H]-thymidine incorporation, radioactivity) / Well 4 ([3H]-thymidine incorporation, radioactivity): Table 1A
Description: After 20 h, [^3H]-thymidine (2 μCi/ml) was added to the culture medium for 2-4 h. The [^3H]-thymidine incorporation was stopped with ice-cold PBS (3 washes) and the cells were incubated with cold 10% trichloroacetic acid (TCA) for 10 min at 4C. The cells were further incubated with TCA at room temperature for 10 min and washed three times with PBS. The cells were solubilized overnight with 1N NaOH and neutralized with an equivalent amount of 1N HCl before radioactivity was determined. […]

[4] = system: vascular endothelial growth factor (VEGF) and basic fibroblast growth factor (bFGF) induced angiogenesis; settings: has been reported; cited from earlier work

Compound: O=C1CC[C@H](N2C(=O)c3ccccc3C2=O)C(=O)N1 [S(−)-enantiomer of thalidomide]
- anti-angiogenic activity in VEGF-induced and bFGF-induced corneal neovascularization [1]: potent anti-angiogenic activity

Compound: O=C1CCC(N2C(=O)c3ccccc3C2=O)C(=O)N1 (stereo not shown) [STD, thalidomide]
- inhibition of the in vitro proliferation of endothelial cells [2]: ability to inhibit
- effect on endothelial cell proliferation (in words) ([3]; 3H-thymidine uptake): significant inhibition of endothelial cell proliferation
- % Inhibition vs 10% Serum ([3]; 38.5 uM): −61.49%
- Average ([3H]-thymidine incorporation, radioactivity) ([3]; 38.5 uM): 2700.214
- Well 1 ([3H]-thymidine incorporation, radioactivity) ([3]; 38.5 uM): 1835.938
- Well 2 ([3H]-thymidine incorporation, radioactivity) ([3]; 38.5 uM): 2018.496
- Well 3 ([3H]-thymidine incorporation, radioactivity) ([3]; 38.5 uM): 4751.43
- Well 4 ([3H]-thymidine incorporation, radioactivity) ([3]; 38.5 uM): 2194.99
- % Inhibition vs 10% Serum ([3]; 96 uM): 30.39%
- Average ([3H]-thymidine incorporation, radioactivity) ([3]; 96 uM): 1163.906
- Well 1 ([3H]-thymidine incorporation, radioactivity) ([3]; 96 uM): 1736.688
- Well 2 ([3H]-thymidine incorporation, radioactivity) ([3]; 96 uM): 850.094
- Well 3 ([3H]-thymidine incorporation, radioactivity) ([3]; 96 uM): 1083.54
- Well 4 ([3H]-thymidine incorporation, radioactivity) ([3]; 96 uM): 985.3011
- % Inhibition vs 10% Serum ([3]; 192.5 uM): 78.48%
- Average ([3H]-thymidine incorporation, radioactivity) ([3]; 192.5 uM): 359.8271
- Well 1 ([3H]-thymidine incorporation, radioactivity) ([3]; 192.5 uM): 255.2577
- Well 2 ([3H]-thymidine incorporation, radioactivity) ([3]; 192.5 uM): 435.4396
- Well 3 ([3H]-thymidine incorporation, radioactivity) ([3]; 192.5 uM): 336.7686
- Well 4 ([3H]-thymidine incorporation, radioactivity) ([3]; 192.5 uM): 411.8425
- % Inhibition vs 10% Serum ([3]; 289 uM): 85.34%
- Average ([3H]-thymidine incorporation, radioactivity) ([3]; 289 uM): 245.0808
- Well 1 ([3H]-thymidine incorporation, radioactivity) ([3]; 289 uM): 198.4536
- Well 2 ([3H]-thymidine incorporation, radioactivity) ([3]; 289 uM): 273.8429
- Well 3 ([3H]-thymidine incorporation, radioactivity) ([3]; 289 uM): 272.3789
- Well 4 ([3H]-thymidine incorporation, radioactivity) ([3]; 289 uM): 235.6478
- % Inhibition vs 10% Serum ([3]; 385 uM): 86.86%
- Average ([3H]-thymidine incorporation, radioactivity) ([3]; 385 uM): 219.7341
- Well 1 ([3H]-thymidine incorporation, radioactivity) ([3]; 385 uM): 141.5772
- Well 2 ([3H]-thymidine incorporation, radioactivity) ([3]; 385 uM): 255.4687
- Well 3 ([3H]-thymidine incorporation, radioactivity) ([3]; 385 uM): 210.2551
- Well 4 ([3H]-thymidine incorporation, radioactivity) ([3]; 385 uM): 271.6354
- anti-angiogenic efficacy against VEGF and bFGF induced angiogenesis [4]: significant anti-angiogenic efficacy
